The values that follow are results of earlier work, collected in CN115177586A, “一种卡泊三醇组合物” (Jiangsu Zhiyuan Pharmaceutical Co ltd, priority 2022, dated 2022).

The conditions of the data set: not told.

Consider `C=C1/C(=C\C=C2/CCC[C@]3(C)[C@@H]([C@H](C)/C=C/[C@@H](O)C4CC4)CC[C@@H]23)C[C@@H](O)C[C@@H]1O` [卡泊三醇], for which the permeability result is on record as “渗透性极差”.
